The results in this text go back to ChEMBL document CHEMBL5380842, “Discovery of a Potent and Selective CCR8 Small Molecular Antagonist IPG7236 for the Treatment of Cancer” (J Med Chem, 2023).

The structures appear in SMILES notation. pIC50: −log10 of the molar value. Converted amounts (≈) assume the structure as drawn.

Data set [1] has as its target C-C chemokine receptor type 8 (Homo sapiens, UniProt P51685). As to the kind of experiment: Antagonist activity against CCR8 (unknown origin) expressed in CHO-K1 cells preincubated for 1 hr followed by CCL1 addition measured after 24 hrs by ONE-Glo assay. In kind it is cell-based.
Data set [2] in a line: Apparent permeability of compound across apical to basal side in human Caco2 cells at 10 uM incubated for 120 mins by LC-MS/MS analysis. The conditions noted are these: Caco-2.
Data set [3] in a line: Apparent permeability of compound across basal to apical side in human Caco2 cells at 10 uM incubated for 120 mins by LC-MS/MS analysis. To be noted: Caco-2.
A short description of data set [4]: Efflux ratio of apparent permeability across basolateral to apical side over apical to basolateral side in human Caco-2 cells at 10 uM incubated for 120 mins by LC-MS/MS analysis.
Data set [5] is described as follows: Solubility of compound in PBS at pH 7.4 incubated for 2 hrs by LC-MS/MS analysis. In kind it is physicochemical.

Chain of C-C chemokine receptor type 8 (P51685 whole entry): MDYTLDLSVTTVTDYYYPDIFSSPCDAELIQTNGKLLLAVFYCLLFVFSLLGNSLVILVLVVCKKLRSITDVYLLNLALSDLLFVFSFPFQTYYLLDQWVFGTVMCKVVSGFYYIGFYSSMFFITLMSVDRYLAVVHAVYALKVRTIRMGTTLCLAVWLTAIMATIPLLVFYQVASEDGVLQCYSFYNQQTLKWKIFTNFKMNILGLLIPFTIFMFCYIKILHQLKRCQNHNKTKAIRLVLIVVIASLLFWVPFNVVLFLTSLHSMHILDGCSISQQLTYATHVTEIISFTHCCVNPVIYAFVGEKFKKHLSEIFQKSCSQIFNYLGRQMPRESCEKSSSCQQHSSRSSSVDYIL

`Cc1ccccc1C(=O)Nc1ccc(S(=O)(=O)Nc2cccc3c2N(CCN(C)C)C(=O)CO3)c2ccccc12`: the pIC50 in data set [1] is less than 6.00.
With `Cc1cc(S(=O)(=O)N[C@H](C)C2CCN(C)CC2)ccc1NC(=O)c1ccc(Cl)cc1C`, the pIC50 in data set [1] was 8.77. For the same compound, in data set [2], the Papp A→B at 2 h, 10 µM stood at 1.1 ×10⁻⁶ cm/s. For the same compound, the Papp B→A at 2 h, 10 µM in data set [3] came to 19.4 ×10⁻⁶ cm/s. Further, in data set [4], the efflux ratio at 2 h, 10 µM was determined as 17.6.
Consider `CCCN1CCN(c2ccc(OC)c(NS(=O)(=O)c3ccc(NC(=O)c4ccccc4C)c4ccccc34)c2)CC1`, for which the pIC50 in data set [1] is less than 6.00.
On the same count and under the same terms, under `COCCN1CCC([C@@H](C)NS(=O)(=O)c2ccc(NC(=O)c3ccccc3C)c(C)c2)CC1` stands 7.10; under `Cc1ccccc1C(=O)Nc1ccc(S(=O)(=O)NC(C)C2CCCCN2)c2ccccc12` (stereo not given), less than 6.00.
Same read-out and setting: under `CCCN1CCN(c2ccc(C)c(NS(=O)(=O)c3ccc(NC(=O)c4ccccc4C)c4ccccc34)c2)CC1` stands less than 6.00.
The same measure, in the same setting: under `CCCN1CCN(c2cccc(NS(=O)(=O)c3ccc(NC(=O)c4ccccc4C)c4ccccc34)c2C)CC1` stands less than 6.00.
Turning to `CCc1cc(S(=O)(=O)N[C@H](C)C2CCN(C)CC2)ccc1NC(=O)c1ccccc1C`, the Papp A→B at 2 h, 10 µM in data set [2] worked out at 1.5 ×10⁻⁶ cm/s. Also, the Papp B→A at 2 h, 10 µM in data set [3] stood at 25.9 ×10⁻⁶ cm/s.
As to `Cc1ccccc1C(=O)Nc1c(C)cc(S(=O)(=O)N[C@H](C)C2CCN(C)CC2)cc1Cl`, the Papp A→B at 2 h, 10 µM in data set [2] was 1.1 ×10⁻⁶ cm/s. Moreover, the Papp B→A at 2 h, 10 µM in data set [3] turned out to be 19.5 ×10⁻⁶ cm/s. In addition, the efflux ratio at 2 h, 10 µM in data set [4] is 17.7. In addition, in data set [5], the solubility at 2 h was 247 µM (≈ 115 µg/mL).
Regarding `Cc1ccccc1C(=O)Nc1ccc(S(=O)(=O)N[C@H](C)C2CCN(C)CC2)cc1C#N`, the pIC50 in data set [1] was 7.48. Besides, the Papp A→B at 2 h, 10 µM in data set [2] came to 0.2 ×10⁻⁶ cm/s. Also, the Papp B→A at 2 h, 10 µM in data set [3] came to 2.7 ×10⁻⁶ cm/s. Further, the efflux ratio at 2 h, 10 µM in data set [4] worked out at 13.5.
On to `COC(=O)CN1CCC([C@@H](C)NS(=O)(=O)c2ccc(NC(=O)c3ccccc3C)c(C)c2)CC1`, for which the pIC50 in data set [1] was 6.89.
For the compound `Cc1ccccc1C(=O)Nc1ccc(S(=O)(=O)N[C@H](C)C2CCN(C)CC2)cc1Cl`, the Papp A→B at 2 h, 10 µM in data set [2] stood at 0.7 ×10⁻⁶ cm/s. In addition, the Papp B→A at 2 h, 10 µM in data set [3] was 25.9 ×10⁻⁶ cm/s. The compound further registered a solubility at 2 h in data set [5] of 233 µM (≈ 105 µg/mL).
`CCCN1CCCN(c2cc(NS(=O)(=O)c3ccc(NC(=O)c4ccccc4C)c4ccccc34)ccc2OC)CC1` had a pIC50 in data set [1] of less than 6.00.
The same measure, in the same setting: under `CCCC(=O)N1CCCC(C(=O)NS(=O)(=O)c2ccc(NC(=O)c3ccccc3C)c3ccccc23)C1` (stereo not given) stands less than 6.00.
`Cc1cc(S(=O)(=O)N[C@H](C)C2CCN(C)CC2)c(Cl)cc1NC(=O)c1ccccc1C`: the Papp A→B at 2 h, 10 µM in data set [2] stood at 2 ×10⁻⁶ cm/s. Moreover, the Papp B→A at 2 h, 10 µM in data set [3] amounted to 25.5 ×10⁻⁶ cm/s.
`Cc1cc(S(=O)(=O)N[C@H](C)C2CCN(C)CC2)ccc1NC(=O)C1CCCCCC1` had a pIC50 in data set [1] of 7.55. The apical-to-basolateral permeability (Papp A→B) at 2 h, 10 µM in data set [2] amounted to 2 ×10⁻⁶ cm/s. In addition, in data set [3], the Papp B→A at 2 h, 10 µM is 17.7 ×10⁻⁶ cm/s. For the same compound, the efflux ratio at 2 h, 10 µM in data set [4] stood at 8.9.
For the compound `Cc1ccccc1C(=O)Nc1ccc(S(=O)(=O)N[C@H](C)C23CCN(CC2)CC3)c2ccccc12`, in data set [1], the pIC50 was 6.52.
Compound `Cc1cc(S(=O)(=O)N[C@H](C)C2CCN(C)CC2)ccc1NC(=O)c1cc(Cl)ccc1C` had a pIC50 in data set [1] of 8.77. Also, the Papp A→B at 2 h, 10 µM in data set [2] was determined as 1.6 ×10⁻⁶ cm/s. The Papp B→A at 2 h, 10 µM in data set [3] stood at 31.4 ×10⁻⁶ cm/s. In data set [4], the efflux ratio at 2 h, 10 µM was 19.6.
For the compound `Cc1cc(S(=O)(=O)N[C@H](C2CC2)C2CCN(C)CC2)ccc1NC(=O)c1ccccc1C`, the Papp A→B at 2 h, 10 µM in data set [2] amounted to 0.3 ×10⁻⁶ cm/s. Also, the Papp B→A at 2 h, 10 µM in data set [3] amounted to 3.6 ×10⁻⁶ cm/s.
`Cc1ccccc1C(=O)Nc1ccc(S(=O)(=O)N[C@H](C)C2CCN(C)CC2)c2ccccc12`: the Papp A→B at 2 h, 10 µM in data set [2] came to 1.3 ×10⁻⁶ cm/s. Moreover, the Papp B→A at 2 h, 10 µM in data set [3] came to 3.4 ×10⁻⁶ cm/s. Moreover, in data set [5], the solubility at 2 h is less than 3 µM.
Regarding `Cc1cc(S(=O)(=O)N[C@H](C)C2CCN(C)CC2)c(C)cc1NC(=O)c1ccccc1C`, the Papp A→B at 2 h, 10 µM in data set [2] came to 1 ×10⁻⁶ cm/s. For the same compound, the Papp B→A at 2 h, 10 µM in data set [3] is 20.1 ×10⁻⁶ cm/s.
On the same counts, the results for `Cc1cc(S(=O)(=O)N[C@H](C)C2CCN(C)CC2)ccc1NC(=O)c1ccsc1C` are 1.5 ×10⁻⁶ cm/s and 25.9 ×10⁻⁶ cm/s.
As for `CCCC(=O)N1CCCC(CNS(=O)(=O)c2ccc(NC(=O)c3ccccc3C)c3ccccc23)C1` (stereo not given), in data set [1], the pIC50 is less than 6.00.
In the case of `CCCN1CCC([C@@H](C)NS(=O)(=O)c2ccc(NC(=O)c3ccccc3C)c(C)c2)CC1`, in data set [2], the Papp A→B at 2 h, 10 µM turned out to be 2.2 ×10⁻⁶ cm/s. For the same compound, in data set [3], the Papp B→A at 2 h, 10 µM worked out at 30.4 ×10⁻⁶ cm/s.
Consider `Cc1cc(S(=O)(=O)NCC2CCN(C)CC2)ccc1NC(=O)c1ccccc1C`, for which the pIC50 in data set [1] was 6.60.
`Cc1ccccc1C(=O)Nc1ccc(S(=O)(=O)NC2CCN(C(=O)N3CCN(C)CC3)CC2)c2ccccc12` gave a pIC50 in data set [1] of 8.40.
For `Cc1cc(S(=O)(=O)N[C@H](C)C2CCN(C)CC2)c(F)cc1NC(=O)c1ccccc1C`, in data set [1], the pIC50 is 8.22. In data set [2], the Papp A→B at 2 h, 10 µM is 2.2 ×10⁻⁶ cm/s. Also, the Papp B→A at 2 h, 10 µM in data set [3] was found to be 19.8 ×10⁻⁶ cm/s. The efflux ratio at 2 h, 10 µM in data set [4] was 9.
